Converted amounts (≈) assume the structure as drawn.
Assays:
Test in all cases: Anti-microbial activity test in vitro (agar dilution MIC)
CRSA C1062 = format: cell-based, Staphylococcus aureus; conditions: CRSA C1062; Agar Dilution method, Mueller Hinton Agar, 18 hours at 37° C.
Experimental: (§1) Anti-microbial activity test in vitro
(§2) Strains were cultivated for 18 hours at 37° C. in Agar Dilution method using Mueller Hinton Agar, and then plane plates inoculated with the strains by diluting them two times gradually were aligned in a row. Minimum inhibition concentration (MIC, μg/ml) for the representative compounds of the present invention, Linezolid (LZD) and vancomycin (VAN) were decided through visual observation, and the results are shown in the following tables 2 and 3.

MSSA C7142 = format: cell-based, Staphylococcus aureus; conditions: MSSA C7142; Agar Dilution method, Mueller Hinton Agar, 18 hours at 37° C.
Experimental: as §1, §2

CRSA C6043 = format: cell-based, Staphylococcus aureus; conditions: CRSA C6043; Agar Dilution method, Mueller Hinton Agar, 18 hours at 37° C.
Experimental: as §1, §2

MRSA C2207 = format: cell-based, Staphylococcus aureus; conditions: MRSA C2207; Agar Dilution method, Mueller Hinton Agar, 18 hours at 37° C.
Experimental: as §1, §2

MSSA C2214 = format: cell-based, Staphylococcus aureus; conditions: MSSA C2214; Agar Dilution method, Mueller Hinton Agar, 18 hours at 37° C.
Experimental: as §1, §2

MRSA C5100 = format: cell-based, Staphylococcus aureus; conditions: MRSA C5100; Agar Dilution method, Mueller Hinton Agar, 18 hours at 37° C.
Experimental: as §1, §2

MRSA C6068 = format: cell-based, Staphylococcus aureus; conditions: MRSA C6068; Agar Dilution method, Mueller Hinton Agar, 18 hours at 37° C.
Experimental: as §1, §2

E. faecalis C6288 = format: cell-based; conditions: E. faecalis C6288; Agar Dilution method, Mueller Hinton Agar, 18 hours at 37° C.
Experimental: as §1, §2

E. faecium C2252 = format: cell-based; conditions: E. faecium C2252; Agar Dilution method, Mueller Hinton Agar, 18 hours at 37° C.
Experimental: as §1, §2

S. epidermidis C2230 = format: cell-based; conditions: S. epidermidis C2230; Agar Dilution method, Mueller Hinton Agar, 18 hours at 37° C.
Experimental: as §1, §2

S. epidermidis C2235 = format: cell-based; conditions: S. epidermidis C2235; Agar Dilution method, Mueller Hinton Agar, 18 hours at 37° C.
Experimental: as §1, §2

E. faecalis C6291 = format: cell-based; conditions: E. faecalis C6291; Agar Dilution method, Mueller Hinton Agar, 18 hours at 37° C.
Experimental: as §1, §2

S. pyogenes C6012 = format: cell-based; conditions: S. pyogenes C6012; Agar Dilution method, Mueller Hinton Agar, 18 hours at 37° C.
Experimental: as §1, §2

S. pyogenes ATCC8668 = format: cell-based; conditions: S. pyogenes ATCC8668; Agar Dilution method, Mueller Hinton Agar, 18 hours at 37° C.
Experimental: as §1, §2

E. faecium C6301 = format: cell-based; conditions: E. faecium C6301; Agar Dilution method, Mueller Hinton Agar, 18 hours at 37° C.
Experimental: as §1, §2

S. epidermidis ATCC12228 = format: cell-based; conditions: S. epidermidis ATCC12228; Agar Dilution method, Mueller Hinton Agar, 18 hours at 37° C.
Experimental: as §1, §2

S. aureus ATCC 29213 = format: cell-based; conditions: Agar Dilution method, Mueller Hinton Agar, 18 hours at 37° C.
Experimental: as §1, §2

S. pyogenes C6003 = format: cell-based; conditions: S. pyogenes C6003; Agar Dilution method, Mueller Hinton Agar, 18 hours at 37° C.
Experimental: as §1, §2

E. faecalis ATCC29212 = format: cell-based; conditions: E. faecalis ATCC29212; Agar Dilution method, Mueller Hinton Agar, 18 hours at 37° C.
Experimental: as §1, §2

VRE C6488 = format: cell-based, Enterococcus faecium; conditions: VRE C6488; Agar Dilution method, Mueller Hinton Agar, 18 hours at 37° C.
Experimental: as §1, §2

VRE C6487 = format: cell-based, Enterococcus faecium; conditions: VRE C6487; Agar Dilution method, Mueller Hinton Agar, 18 hours at 37° C.
Experimental: as §1, §2

Structure (SMILES)	Minimum inhibition concentration (MIC) (CRSA C1062)	Minimum inhibition concentration (MIC) (MSSA C7142)	Minimum inhibition concentration (MIC) (CRSA C6043)	Minimum inhibition concentration (MIC) (MRSA C2207)	Minimum inhibition concentration (MIC) (MSSA C2214)	Minimum inhibition concentration (MIC) (MRSA C5100)	Minimum inhibition concentration (MIC) (MRSA C6068)	Minimum inhibition concentration (MIC) (E. faecalis C6288)	Minimum inhibition concentration (MIC) (E. faecium C2252)	Minimum inhibition concentration (MIC) (S. epidermidis C2230)	Minimum inhibition concentration (MIC) (S. epidermidis C2235)	Minimum inhibition concentration (MIC) (E. faecalis C6291)	Minimum inhibition concentration (MIC) (S. pyogenes C6012)	Minimum inhibition concentration (MIC) (S. pyogenes ATCC8668)	Minimum inhibition concentration (MIC) (E. faecium C6301)	Minimum inhibition concentration (MIC) (S. epidermidis ATCC12228)	Minimum inhibition concentration (MIC) (S. aureus ATCC 29213)	Minimum inhibition concentration (MIC) (S. pyogenes C6003)	Minimum inhibition concentration (MIC) (E. faecalis ATCC29212)	Minimum inhibition concentration (MIC) (VRE C6488)	further results
CC(=O)NC[C@H]1CN(c2ccc(N3CCC(=CC(C)=NO)CC3)c(F)c2)C(=O)O1 [Compound 20, N-[[(5S)-3-[3-fluoro-4-(4-(2-hydroxyiminopropylidene)-piperidinyl)phenyl]-2-oxo-5-oxazolidinyl]methyl]acetamide]	8 µg/mL (≈ 19.8 µM)	16 µg/mL (≈ 39.6 µM)	8 µg/mL (≈ 19.8 µM)	8 µg/mL (≈ 19.8 µM)	8 µg/mL (≈ 19.8 µM)	8 µg/mL (≈ 19.8 µM)	4 µg/mL (≈ 9.89 µM)	4 µg/mL (≈ 9.89 µM)	4 µg/mL (≈ 9.89 µM)	4 µg/mL (≈ 9.89 µM)	4 µg/mL (≈ 9.89 µM)	4 µg/mL (≈ 9.89 µM)	1 µg/mL (≈ 2.47 µM)	1 µg/mL (≈ 2.47 µM)	4 µg/mL (≈ 9.89 µM)	1 µg/mL (≈ 2.47 µM)	8 µg/mL (≈ 19.8 µM)	4 µg/mL (≈ 9.89 µM)	8 µg/mL (≈ 19.8 µM)	4 µg/mL (≈ 9.89 µM)	Minimum inhibition concentration (MIC) (VRE C6487): 4 µg/mL (≈ 9.89 µM)
CON=C(C)C=C1CCN(c2ccc(N3C[C@H](CNC(C)=O)OC3=O)cc2F)CC1 [Compound 21, N-[[(5S)-3-[3-fluoro-4-(4-(2-methoxyiminopropylidene)-piperidinyl)phenyl]-2-oxo-5-oxazolidinyl]methyl]acetamide]	32 µg/mL (≈ 76.5 µM)	16 µg/mL (≈ 38.2 µM)	16 µg/mL (≈ 38.2 µM)	16 µg/mL (≈ 38.2 µM)	16 µg/mL (≈ 38.2 µM)	8 µg/mL (≈ 19.1 µM)	8 µg/mL (≈ 19.1 µM)	8 µg/mL (≈ 19.1 µM)	8 µg/mL (≈ 19.1 µM)	16 µg/mL (≈ 38.2 µM)	8 µg/mL (≈ 19.1 µM)	8 µg/mL (≈ 19.1 µM)	2 µg/mL (≈ 4.78 µM)	2 µg/mL (≈ 4.78 µM)	8 µg/mL (≈ 19.1 µM)	2 µg/mL (≈ 4.78 µM)	16 µg/mL (≈ 38.2 µM)	8 µg/mL (≈ 19.1 µM)	16 µg/mL (≈ 38.2 µM)	4 µg/mL (≈ 9.56 µM)	Minimum inhibition concentration (MIC) (VRE C6487): 4 µg/mL (≈ 9.56 µM)
CCOC(=O)C(Cl)=C1CCN(c2ccc(N3C[C@H](CNC(C)=O)OC3=O)cc2F)CC1 [Compound 15, N-[[(5S)-3-[3-fluoro-4-((4-(1-ethoxycarbonyl-1-chloro)-methylidene)piperidinyl)phenyl]-2-oxo-5-oxazolidinyl]methyl]acetamide]	16 µg/mL (≈ 35.3 µM)	8 µg/mL (≈ 17.6 µM)	16 µg/mL (≈ 35.3 µM)	16 µg/mL (≈ 35.3 µM)	8 µg/mL (≈ 17.6 µM)	16 µg/mL (≈ 35.3 µM)	16 µg/mL (≈ 35.3 µM)	8 µg/mL (≈ 17.6 µM)	4 µg/mL (≈ 8.81 µM)	4 µg/mL (≈ 8.81 µM)	4 µg/mL (≈ 8.81 µM)	4 µg/mL (≈ 8.81 µM)	8 µg/mL (≈ 17.6 µM)	2 µg/mL (≈ 4.41 µM)	2 µg/mL (≈ 4.41 µM)	2 µg/mL (≈ 4.41 µM)	32 µg/mL (≈ 70.5 µM)	2 µg/mL (≈ 4.41 µM)	8 µg/mL (≈ 17.6 µM)	4 µg/mL (≈ 8.81 µM)	Minimum inhibition concentration (MIC) (VRE C6487): 2 µg/mL (≈ 4.41 µM)
CC(=O)NC[C@H]1CN(c2ccc(N3CCC(=CC#N)CC3)c(F)c2)C(=O)O1 [Compound 8, N-[[(5S)-3-[3-fluoro-4-(4-cyanomethylidenepiperidinyl)-phenyl]-2-oxo-5-oxazolidinyl]methyl]acetamide]	2 µg/mL (≈ 5.37 µM)	2 µg/mL (≈ 5.37 µM)	2 µg/mL (≈ 5.37 µM)	2 µg/mL (≈ 5.37 µM)	4 µg/mL (≈ 10.7 µM)	2 µg/mL (≈ 5.37 µM)	1 µg/mL (≈ 2.69 µM)	2 µg/mL (≈ 5.37 µM)	2 µg/mL (≈ 5.37 µM)	2 µg/mL (≈ 5.37 µM)	1 µg/mL (≈ 2.69 µM)	2 µg/mL (≈ 5.37 µM)	0.5 µg/mL (≈ 1.34 µM)	0.5 µg/mL (≈ 1.34 µM)	2 µg/mL (≈ 5.37 µM)	0.5 µg/mL (≈ 1.34 µM)	2 µg/mL (≈ 5.37 µM)	2 µg/mL (≈ 5.37 µM)	2 µg/mL (≈ 5.37 µM)	4 µg/mL (≈ 10.7 µM)	Minimum inhibition concentration (MIC) (VRE C6487): 4 µg/mL (≈ 10.7 µM)
CON=CC=C1CCN(c2ccc(N3C[C@H](CNC(C)=O)OC3=O)cc2F)CC1 [Compound 19, N-[[(5S)-3-[3-fluoro-4-(4-(2-methoxyiminoethylidene)-piperidinyl)phenyl]-2-oxo-5-oxazolidinyl]methyl]acetamide]	4 µg/mL (≈ 9.89 µM)	4 µg/mL (≈ 9.89 µM)	4 µg/mL (≈ 9.89 µM)	4 µg/mL (≈ 9.89 µM)	8 µg/mL (≈ 19.8 µM)	4 µg/mL (≈ 9.89 µM)	4 µg/mL (≈ 9.89 µM)	2 µg/mL (≈ 4.95 µM)	4 µg/mL (≈ 9.89 µM)	4 µg/mL (≈ 9.89 µM)	2 µg/mL (≈ 4.95 µM)	4 µg/mL (≈ 9.89 µM)	1 µg/mL (≈ 2.47 µM)	1 µg/mL (≈ 2.47 µM)	4 µg/mL (≈ 9.89 µM)	1 µg/mL (≈ 2.47 µM)	8 µg/mL (≈ 19.8 µM)	2 µg/mL (≈ 4.95 µM)	4 µg/mL (≈ 9.89 µM)	4 µg/mL (≈ 9.89 µM)	Minimum inhibition concentration (MIC) (VRE C6487): 4 µg/mL (≈ 9.89 µM)

Source: patent US20040087633A1, “Methylidene oxazolidinone compound and preparation method thereof” (Korea Institute of Science and Technology, priority 2002, published 2004)
